Measurements taken from publication PMC4076210, “Discovery of Novel AKT Inhibitors with Enhanced Anti-Tumor Effects in Combination with the MEK Inhibitor” (PLoS ONE, 2014).
Read-outs that look alike come from different tables or passages of the source.

Key:
Type in all cases: biochemical
EphA3(h) = target: T1, EphA3(h) (Homo sapiens, UniProt P29320); assay: Kinase panel
T1 construct: purchased Millipore KinaseProfiler
T1 sequence (P29320 21-983): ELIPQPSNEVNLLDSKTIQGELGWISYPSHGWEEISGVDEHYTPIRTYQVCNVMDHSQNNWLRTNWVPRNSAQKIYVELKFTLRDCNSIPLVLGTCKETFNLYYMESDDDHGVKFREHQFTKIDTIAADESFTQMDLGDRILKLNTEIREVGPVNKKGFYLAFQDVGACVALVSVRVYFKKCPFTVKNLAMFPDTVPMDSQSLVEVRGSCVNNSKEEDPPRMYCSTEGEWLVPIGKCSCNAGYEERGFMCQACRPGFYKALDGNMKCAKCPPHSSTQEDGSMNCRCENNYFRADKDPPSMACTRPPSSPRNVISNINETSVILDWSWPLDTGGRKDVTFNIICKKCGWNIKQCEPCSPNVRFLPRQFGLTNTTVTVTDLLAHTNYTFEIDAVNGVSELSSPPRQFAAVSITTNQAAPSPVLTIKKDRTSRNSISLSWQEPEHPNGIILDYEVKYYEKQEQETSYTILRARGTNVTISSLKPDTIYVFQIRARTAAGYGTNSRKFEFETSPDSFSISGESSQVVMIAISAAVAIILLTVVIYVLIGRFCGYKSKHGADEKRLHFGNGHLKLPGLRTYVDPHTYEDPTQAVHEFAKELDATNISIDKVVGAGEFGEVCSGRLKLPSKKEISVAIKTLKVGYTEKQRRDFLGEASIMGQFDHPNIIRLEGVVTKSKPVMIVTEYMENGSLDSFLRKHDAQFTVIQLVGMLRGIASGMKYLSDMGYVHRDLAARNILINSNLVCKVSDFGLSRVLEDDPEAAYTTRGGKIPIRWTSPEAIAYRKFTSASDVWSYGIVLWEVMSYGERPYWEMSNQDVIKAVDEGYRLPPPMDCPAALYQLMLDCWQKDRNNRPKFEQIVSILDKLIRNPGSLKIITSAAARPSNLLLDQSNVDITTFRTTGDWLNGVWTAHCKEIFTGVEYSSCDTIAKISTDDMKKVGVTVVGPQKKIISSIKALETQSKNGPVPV

CaMKIV(h) = target: T2, CaMKIV(h) (Homo sapiens, UniProt Q16566); assay: Kinase panel
T2 construct: purchased Millipore KinaseProfiler
T2 sequence (Q16566 1-473): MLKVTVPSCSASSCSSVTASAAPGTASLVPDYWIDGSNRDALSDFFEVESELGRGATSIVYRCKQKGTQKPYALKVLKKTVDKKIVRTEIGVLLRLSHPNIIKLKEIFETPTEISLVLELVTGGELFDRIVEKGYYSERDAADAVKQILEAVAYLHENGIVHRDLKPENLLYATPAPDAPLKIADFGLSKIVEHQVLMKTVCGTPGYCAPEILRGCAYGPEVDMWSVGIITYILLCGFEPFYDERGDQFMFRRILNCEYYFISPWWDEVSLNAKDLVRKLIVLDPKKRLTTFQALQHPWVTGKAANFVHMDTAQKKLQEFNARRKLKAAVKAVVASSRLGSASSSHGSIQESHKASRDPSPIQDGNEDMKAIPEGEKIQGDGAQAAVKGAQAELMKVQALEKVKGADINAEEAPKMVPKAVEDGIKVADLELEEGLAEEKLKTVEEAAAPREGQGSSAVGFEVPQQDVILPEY

PKCθ = PKCθ (Homo sapiens, UniProt Q04759); assay: Kinase IC50 assay
CDK5/p35(h) = target: T3, CDK5/p35(h) (Homo sapiens, UniProt Q00535); assay: Kinase panel
T3 construct: purchased Millipore KinaseProfiler

EGFR(T790M,L858R)(h) = target: T4, EGFR(T790M,L858R)(h) (Homo sapiens, UniProt P00533, L858R/T790M); assay: Kinase panel
T4 construct: purchased Millipore KinaseProfiler

SAPK2b(h) = target: T5, SAPK2b(h) (Homo sapiens, UniProt Q15759); assay: Kinase panel
T5 construct: purchased Millipore KinaseProfiler

EphB1(h) = target: T6, EphB1(h) (Homo sapiens, UniProt P54762); assay: Kinase panel
T6 construct: purchased Millipore KinaseProfiler
T6 sequence (P54762 18-984): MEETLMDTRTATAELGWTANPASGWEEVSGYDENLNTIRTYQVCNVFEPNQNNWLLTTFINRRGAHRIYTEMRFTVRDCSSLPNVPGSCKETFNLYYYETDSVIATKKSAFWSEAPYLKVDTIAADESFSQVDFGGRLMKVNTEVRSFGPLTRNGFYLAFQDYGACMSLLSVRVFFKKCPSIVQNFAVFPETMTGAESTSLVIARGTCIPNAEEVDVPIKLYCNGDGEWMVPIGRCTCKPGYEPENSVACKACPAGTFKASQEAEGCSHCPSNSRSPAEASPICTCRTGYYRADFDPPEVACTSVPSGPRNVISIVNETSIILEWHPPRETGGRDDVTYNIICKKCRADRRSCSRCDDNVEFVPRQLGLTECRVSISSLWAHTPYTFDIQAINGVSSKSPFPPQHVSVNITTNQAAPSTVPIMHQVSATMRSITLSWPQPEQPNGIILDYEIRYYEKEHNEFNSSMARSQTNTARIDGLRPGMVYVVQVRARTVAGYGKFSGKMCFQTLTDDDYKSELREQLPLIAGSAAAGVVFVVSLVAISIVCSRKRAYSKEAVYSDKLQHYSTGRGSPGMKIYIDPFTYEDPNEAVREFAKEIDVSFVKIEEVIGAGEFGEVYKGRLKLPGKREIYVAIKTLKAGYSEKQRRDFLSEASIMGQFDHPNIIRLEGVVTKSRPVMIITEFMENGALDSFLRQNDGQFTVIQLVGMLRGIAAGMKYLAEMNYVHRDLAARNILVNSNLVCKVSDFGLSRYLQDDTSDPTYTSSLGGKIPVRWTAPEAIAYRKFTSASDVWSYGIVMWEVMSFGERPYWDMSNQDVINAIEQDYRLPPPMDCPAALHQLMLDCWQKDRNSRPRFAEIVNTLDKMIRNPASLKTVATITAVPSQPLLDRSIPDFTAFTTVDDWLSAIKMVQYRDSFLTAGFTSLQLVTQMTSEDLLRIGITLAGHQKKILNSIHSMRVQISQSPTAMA

PKA(h) = target: T7, PKA(h) (Homo sapiens, UniProt P17612); assay: Kinase panel
T7 construct: purchased Millipore KinaseProfiler

PAK2(h) = target: T8, PAK2(h) (Homo sapiens, UniProt Q13177); assay: Kinase panel
T8 construct: purchased Millipore KinaseProfiler

PKCδ(h) = target: T9, PKCδ(h) (Homo sapiens, UniProt Q05655); assay: Kinase panel
T9 construct: purchased Millipore KinaseProfiler
T9 sequence (Q05655 whole entry): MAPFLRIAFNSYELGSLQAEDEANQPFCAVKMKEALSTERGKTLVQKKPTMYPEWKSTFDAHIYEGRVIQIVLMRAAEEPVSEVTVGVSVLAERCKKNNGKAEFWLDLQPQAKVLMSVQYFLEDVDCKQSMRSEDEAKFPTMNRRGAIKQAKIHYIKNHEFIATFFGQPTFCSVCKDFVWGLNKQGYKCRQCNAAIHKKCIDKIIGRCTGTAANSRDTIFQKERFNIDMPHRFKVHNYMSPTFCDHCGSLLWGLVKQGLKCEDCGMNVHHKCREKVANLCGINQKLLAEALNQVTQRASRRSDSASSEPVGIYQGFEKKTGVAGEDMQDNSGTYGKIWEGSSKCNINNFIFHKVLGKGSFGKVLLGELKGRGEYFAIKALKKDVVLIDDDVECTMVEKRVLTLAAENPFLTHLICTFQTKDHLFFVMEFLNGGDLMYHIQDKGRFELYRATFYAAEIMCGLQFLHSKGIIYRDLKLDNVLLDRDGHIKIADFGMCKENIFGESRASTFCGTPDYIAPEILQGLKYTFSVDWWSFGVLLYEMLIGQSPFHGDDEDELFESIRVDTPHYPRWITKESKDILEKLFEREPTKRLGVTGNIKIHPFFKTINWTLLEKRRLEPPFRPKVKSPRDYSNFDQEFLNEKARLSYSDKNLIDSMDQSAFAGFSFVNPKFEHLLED

T4 sequence (P00533 25-1210 T790M/L858R): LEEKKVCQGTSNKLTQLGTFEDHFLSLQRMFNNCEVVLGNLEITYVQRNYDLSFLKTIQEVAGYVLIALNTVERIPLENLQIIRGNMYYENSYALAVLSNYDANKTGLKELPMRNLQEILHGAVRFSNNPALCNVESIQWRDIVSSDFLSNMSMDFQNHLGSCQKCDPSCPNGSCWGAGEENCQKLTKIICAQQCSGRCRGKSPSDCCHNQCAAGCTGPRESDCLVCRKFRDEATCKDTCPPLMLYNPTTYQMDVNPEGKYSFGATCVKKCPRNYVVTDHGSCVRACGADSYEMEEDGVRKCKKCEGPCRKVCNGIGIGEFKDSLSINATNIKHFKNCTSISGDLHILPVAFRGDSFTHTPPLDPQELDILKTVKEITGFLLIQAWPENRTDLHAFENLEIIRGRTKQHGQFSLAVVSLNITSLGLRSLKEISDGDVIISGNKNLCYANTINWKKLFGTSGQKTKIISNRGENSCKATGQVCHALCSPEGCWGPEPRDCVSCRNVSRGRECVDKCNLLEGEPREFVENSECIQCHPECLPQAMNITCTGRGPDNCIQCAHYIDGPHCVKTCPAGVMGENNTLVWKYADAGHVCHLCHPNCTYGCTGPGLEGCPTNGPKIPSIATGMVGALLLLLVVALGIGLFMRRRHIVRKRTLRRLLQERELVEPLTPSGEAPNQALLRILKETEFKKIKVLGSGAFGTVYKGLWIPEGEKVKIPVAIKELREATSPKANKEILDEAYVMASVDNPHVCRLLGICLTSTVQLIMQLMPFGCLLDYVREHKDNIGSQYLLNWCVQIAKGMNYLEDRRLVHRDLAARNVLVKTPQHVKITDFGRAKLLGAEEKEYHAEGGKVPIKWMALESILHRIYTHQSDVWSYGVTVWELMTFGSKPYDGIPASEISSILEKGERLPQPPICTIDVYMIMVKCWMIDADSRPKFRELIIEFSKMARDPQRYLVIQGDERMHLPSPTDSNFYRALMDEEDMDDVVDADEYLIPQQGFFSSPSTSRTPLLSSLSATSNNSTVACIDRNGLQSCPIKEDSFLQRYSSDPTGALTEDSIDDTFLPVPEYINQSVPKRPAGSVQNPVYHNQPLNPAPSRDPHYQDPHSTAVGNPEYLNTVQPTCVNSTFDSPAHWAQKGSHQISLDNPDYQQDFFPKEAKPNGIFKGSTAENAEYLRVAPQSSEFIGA
T5 sequence (Q15759 whole entry): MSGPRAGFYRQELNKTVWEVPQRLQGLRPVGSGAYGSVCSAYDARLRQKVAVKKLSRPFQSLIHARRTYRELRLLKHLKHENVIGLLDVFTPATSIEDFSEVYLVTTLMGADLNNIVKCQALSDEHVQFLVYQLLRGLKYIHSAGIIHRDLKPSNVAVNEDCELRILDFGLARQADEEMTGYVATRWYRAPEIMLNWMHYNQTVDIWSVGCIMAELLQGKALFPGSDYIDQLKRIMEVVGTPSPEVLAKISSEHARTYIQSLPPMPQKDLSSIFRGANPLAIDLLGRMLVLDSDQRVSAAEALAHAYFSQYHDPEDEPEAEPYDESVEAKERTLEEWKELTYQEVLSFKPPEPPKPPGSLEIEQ
T8 sequence (Q13177 whole entry): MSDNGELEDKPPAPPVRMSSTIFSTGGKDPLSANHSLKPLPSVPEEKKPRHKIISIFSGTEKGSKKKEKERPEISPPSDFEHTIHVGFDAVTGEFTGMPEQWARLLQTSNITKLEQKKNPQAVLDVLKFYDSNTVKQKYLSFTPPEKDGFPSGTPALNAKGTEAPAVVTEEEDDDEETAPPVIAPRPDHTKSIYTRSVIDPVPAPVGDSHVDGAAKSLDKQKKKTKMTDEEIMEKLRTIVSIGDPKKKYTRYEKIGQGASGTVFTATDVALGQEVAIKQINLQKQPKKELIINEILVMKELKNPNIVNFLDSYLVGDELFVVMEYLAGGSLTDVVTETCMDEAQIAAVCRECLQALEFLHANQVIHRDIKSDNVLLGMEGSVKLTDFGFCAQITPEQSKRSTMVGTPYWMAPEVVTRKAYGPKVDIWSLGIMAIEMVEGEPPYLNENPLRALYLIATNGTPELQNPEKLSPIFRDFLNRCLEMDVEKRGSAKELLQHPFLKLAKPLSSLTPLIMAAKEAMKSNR
T3 sequence (Q00535 whole entry): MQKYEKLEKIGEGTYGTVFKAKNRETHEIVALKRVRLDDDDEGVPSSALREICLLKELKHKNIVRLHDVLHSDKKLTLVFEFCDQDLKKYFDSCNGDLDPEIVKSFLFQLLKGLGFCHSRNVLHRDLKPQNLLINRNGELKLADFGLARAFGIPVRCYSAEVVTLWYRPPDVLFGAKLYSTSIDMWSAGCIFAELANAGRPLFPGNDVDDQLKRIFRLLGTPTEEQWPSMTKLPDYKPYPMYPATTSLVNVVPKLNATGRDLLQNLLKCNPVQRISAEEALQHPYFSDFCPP
T3 sequence (Q15078 whole entry partner): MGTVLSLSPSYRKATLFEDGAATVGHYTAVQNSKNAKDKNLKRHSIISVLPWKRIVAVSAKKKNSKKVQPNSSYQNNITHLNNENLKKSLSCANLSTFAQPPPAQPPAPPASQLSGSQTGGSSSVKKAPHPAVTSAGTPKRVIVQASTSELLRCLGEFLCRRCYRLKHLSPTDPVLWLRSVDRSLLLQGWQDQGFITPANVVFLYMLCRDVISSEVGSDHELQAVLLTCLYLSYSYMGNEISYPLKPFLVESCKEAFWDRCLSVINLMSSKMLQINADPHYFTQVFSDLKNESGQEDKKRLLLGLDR
Sequence of PKCθ (Q04759 whole entry): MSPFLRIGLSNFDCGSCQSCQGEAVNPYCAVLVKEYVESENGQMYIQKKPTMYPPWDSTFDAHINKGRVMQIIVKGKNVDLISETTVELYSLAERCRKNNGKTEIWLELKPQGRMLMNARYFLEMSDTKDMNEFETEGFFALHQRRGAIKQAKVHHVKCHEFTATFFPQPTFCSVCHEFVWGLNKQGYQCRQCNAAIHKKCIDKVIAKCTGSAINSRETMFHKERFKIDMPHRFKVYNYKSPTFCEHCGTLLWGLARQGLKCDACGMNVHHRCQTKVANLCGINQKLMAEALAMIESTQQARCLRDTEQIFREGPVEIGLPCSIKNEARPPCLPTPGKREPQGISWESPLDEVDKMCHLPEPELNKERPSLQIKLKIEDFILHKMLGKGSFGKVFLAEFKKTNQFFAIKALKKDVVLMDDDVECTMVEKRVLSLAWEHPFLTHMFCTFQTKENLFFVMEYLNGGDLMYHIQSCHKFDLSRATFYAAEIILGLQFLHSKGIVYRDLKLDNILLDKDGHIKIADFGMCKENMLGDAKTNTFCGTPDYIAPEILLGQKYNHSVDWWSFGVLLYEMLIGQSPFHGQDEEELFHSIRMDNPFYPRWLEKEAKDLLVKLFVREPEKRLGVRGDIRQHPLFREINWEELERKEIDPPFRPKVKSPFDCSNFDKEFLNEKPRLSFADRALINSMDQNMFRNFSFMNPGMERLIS

In the case of Cn1ncc(Cl)c1-c1cc(C(=O)N[C@H](CN)Cc2cccc(F)c2)sc1Cl [GSK2110183], the inhibition at 0.5 µM (EphA3(h)) is reported as 1%, the inhibition at 10 µM (EphA3(h)) is reported as 11% and the inhibition at 0.5 µM (CaMKIV(h)) is reported as -15%. The inhibition at 10 µM (CaMKIV(h)) was 0%, the IC50 (PKCθ) was 510 nM and the inhibition at 0.5 µM (CDK5/p35(h)) was -10%. For the same compound, the inhibition at 10 µM (CDK5/p35(h)) was 17%, the inhibition at 0.5 µM (EGFR(T790M,L858R)(h)) was -32% and the inhibition at 10 µM (EGFR(T790M,L858R)(h)) was -3%. The inhibition at 0.5 µM (SAPK2b(h)) was -8%, the inhibition at 10 µM (SAPK2b(h)) was -13% and the inhibition at 0.5 µM (EphB1(h)) was -2%. It also gave an inhibition at 10 µM (EphB1(h)) of -4%, an inhibition at 0.5 µM (PKA(h)) of 94% and an inhibition at 10 µM (PKA(h)) of 96%. It also gave an inhibition at 0.5 µM (PAK2(h)) of -2%, an inhibition at 10 µM (PAK2(h)) of 23% and an inhibition at 0.5 µM (PKCδ(h)) of 48%. For the same compound, the inhibition at 10 µM (PKCδ(h)) was 92%.

Work on Cn1ncc(Cl)c1-c1cc(C(=O)N[C@H](CN)Cc2ccc(F)c(F)c2)oc1Cl [GSK2141795] yielded an inhibition at 0.5 µM (EphA3(h); 0.5 µM, read-out: % Inhibition) of -7%, an inhibition at 10 µM (EphA3(h); 10 µM, read-out: % Inhibition) of 21% and an inhibition at 0.5 µM (CaMKIV(h); 0.5 µM, read-out: % Inhibition) of -18%. It also gave an inhibition at 10 µM (CaMKIV(h); 10 µM, read-out: % Inhibition) of -21%, an IC50 (PKCθ) of 64 nM and an inhibition at 0.5 µM (CDK5/p35(h); 0.5 µM, read-out: % Inhibition) of -14%. It also gave an inhibition at 10 µM (CDK5/p35(h); 10 µM, read-out: % Inhibition) of 32%, an inhibition at 0.5 µM (EGFR(T790M,L858R)(h); 0.5 µM, read-out: % Inhibition) of -7% and an inhibition at 10 µM (EGFR(T790M,L858R)(h); 10 µM, read-out: % Inhibition) of 18%. The inhibition at 0.5 µM (SAPK2b(h); 0.5 µM, read-out: % Inhibition) was -17%, the inhibition at 10 µM (SAPK2b(h); 10 µM, read-out: % Inhibition) was -9% and the inhibition at 0.5 µM (EphB1(h); 0.5 µM, read-out: % Inhibition) was -5%. The inhibition at 10 µM (EphB1(h); 10 µM, read-out: % Inhibition) was -5%, the inhibition at 0.5 µM (PKA(h); 0.5 µM, read-out: % Inhibition) was 99% and the inhibition at 10 µM (PKA(h); 10 µM, read-out: % Inhibition) was 97%. It also gave an inhibition at 0.5 µM (PAK2(h); 0.5 µM, read-out: % Inhibition) of 22%, an inhibition at 10 µM (PAK2(h); 10 µM, read-out: % Inhibition) of 25% and an inhibition at 0.5 µM (PKCδ(h); 0.5 µM, read-out: % Inhibition) of 67%. It also gave an inhibition at 10 µM (PKCδ(h); 10 µM, read-out: % Inhibition) of 85%.
